Laboratory results reported in the supplement of paper PMC10307832.

Tests used:
Experiment in all cases: relative viability (nuclei count vs DMSO), 5 days (fraction); higher = more cells survive
[1] = compound: O=C(C[C@H]1NCCC[C@@H]1O)Cn1cnc2cc(Br)c(Cl)cc2c1=O (racemic) [Halofuginone] + C[C@]1(O)C[C@@H](c2nc(-c3ccc4ccc(-c5ccccc5)nc4c3)c3c(N)nccn32)C1 [Linsitinib] (partner 1 µM)
Procedure, shortened: (§1)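 The day after seeding in 1536-well plates, lung cancer cell lines were treated by pin tool with a single drug, or with a fixed anchor-drug dose together with five library-drug doses (not always all listed) in √10 steps. After 5 days, a combined fix-and-stain solution (final 0.05% Triton X-100, 1% formaldehyde, 1 ug/ml Hoechst) was added. Nuclei counted on 4× images gave relative viability as treated counts over vehicle counts, reported as the median of duplicate plates.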

Cediranib + Trametinib = compound: COc1cc2c(Oc3ccc4[nH]c(C)cc4c3F)ncnc2cc1OCCCN1CCCC1 [Cediranib] + CC(=O)Nc1cccc(-n2c(=O)n(C3CC3)c(=O)c3c(Nc4ccc(I)cc4F)n(C)c(=O)c(C)c32)c1 [Trametinib] (partner 0.02 µM)
Procedure, shortened: as §1

[2] = compound: O=C(C[C@H]1NCCC[C@@H]1O)Cn1cnc2cc(Br)c(Cl)cc2c1=O (racemic) [Halofuginone] + CC(=O)c1c(C)c2cnc(Nc3ccc(N4CCNCC4)cn3)nc2n(C2CCCC2)c1=O [Palbociclib] (partner 0.5 µM)
Procedure, shortened: as §1

Decitabine + Lapatinib = compound: Nc1ncn([C@H]2C[C@H](O)[C@@H](CO)O2)c(=O)n1 [Decitabine] + CS(=O)(=O)CCNCc1ccc(-c2ccc3ncnc(Nc4ccc(OCc5cccc(F)c5)c(Cl)c4)c3c2)o1 [Lapatinib] (partner 2 µM)
Procedure, shortened: as §1

| Cell Line | relative viability ([1]; first compound 0.001 µM) | relative viability ([1]; first compound 0.003162 µM) | relative viability ([1]; first compound 0.01 µM) | relative viability ([1]; first compound 0.03162 µM) | relative viability ([1]; first compound 0.1 µM) | relative viability (Cediranib + Trametinib; first compound 0.04 µM) | relative viability (Cediranib + Trametinib; first compound 0.4 µM) | relative viability (Cediranib + Trametinib; first compound 1.265 µM) | relative viability (Cediranib + Trametinib; first compound 4 µM) | relative viability ([2]; first compound 0.001 µM) | relative viability ([2]; first compound 0.003162 µM) | relative viability ([2]; first compound 0.01 µM) | relative viability ([2]; first compound 0.03162 µM) | relative viability ([2]; first compound 0.1 µM) | relative viability (Decitabine + Lapatinib; first compound 0.04 µM) | relative viability (Decitabine + Lapatinib; first compound 0.1265 µM) | relative viability (Decitabine + Lapatinib; first compound 0.4 µM) | relative viability (Decitabine + Lapatinib; first compound 1.265 µM) | relative viability (Decitabine + Lapatinib; first compound 4 µM) | relative viability (Cediranib + Trametinib; first compound 0.1265 µM) |
| --- | --- | --- | --- | --- | --- | --- | --- | --- | --- | --- | --- | --- | --- | --- | --- | --- | --- | --- | --- | --- |
| LXF-289 | 0.938 | 1.05 | 0.877 | 0.954 | 0.923 | 0.671 | 0.676 | 0.651 | 0.632 | 0.553 | 0.608 | 0.577 | 0.603 | 0.581 | 0.809 | 0.733 | 0.484 | 0.402 | 0.354 |  |
| NCI-H23 | 0.656 | 0.573 | 0.556 | 0.692 | 0.211 | 0.483 | 0.419 | 0.325 | 0.424 | 0.694 | 0.501 | 0.479 | 0.562 | 0.331 | 0.777 | 0.795 | 0.237 | 0.235 | 0.22 | 0.426 |
| NCI-H322M | 0.919 | 1.02 | 0.907 | 1.04 | 0.926 | 0.475 | 0.526 | 0.528 | 0.568 | 0.549 | 0.475 | 0.45 | 0.465 | 0.357 | 0.682 | 0.629 | 0.609 | 0.434 | 0.421 | 0.489 |
| NCI-H358 | 0.779 | 0.707 | 0.629 | 0.273 | 0.19 | 0.148 | 0.123 | 0.106 | 0.131 | 0.142 | 0.127 | 0.141 | 0.129 | 0.0899 | 0.468 | 0.512 | 0.388 | 0.284 | 0.334 | 0.156 |
| NCI-H460 | 0.696 | 0.833 | 0.78 | 0.404 | 0.0417 | 0.111 | 0.138 | 0.153 | 0.214 | 0.233 | 0.237 | 0.207 | 0.182 | 0.0284 | 0.902 | 1.06 | 0.277 | 0.18 | 0.114 | 0.156 |
| NCI-H520 | 0.997 | 0.85 | 0.994 | 0.667 | 0.422 | 0.783 | 0.54 | 0.483 | 0.521 | 0.191 | 0.222 | 0.208 | 0.232 | 0.2 | 0.798 | 0.965 | 0.499 | 0.359 | 0.267 | 0.435 |
| NCI-H647 | 1.35 | 1.06 | 1.03 | 0.665 | 0.173 | 0.48 | 0.441 | 0.515 | 0.491 | 0.413 | 0.399 | 0.422 | 0.287 | 0.105 | 0.756 | 0.77 | 0.537 | 0.271 | 0.194 | 0.428 |
| NCI-H650 | 1.03 | 0.924 | 0.877 | 0.811 | 0.457 | 0.96 | 1.06 | 1.09 | 1.03 | 0.362 | 0.337 | 0.302 | 0.294 | 0.305 | 0.786 | 0.532 | 0.339 | 0.356 | 0.292 | 0.85 |
| NCI-H661 | 0.677 | 0.589 | 0.537 | 0.627 | 0.39 | 0.609 | 0.567 | 0.522 | 0.61 | 0.422 | 0.405 | 0.37 | 0.373 | 0.312 | 0.465 | 0.455 | 0.382 | 0.297 | 0.269 | 0.751 |
| NCI-H727 | 0.324 | 0.427 | 0.415 | 0.243 | 0.132 | 0.374 | 0.358 | 0.374 | 0.384 | 0.715 | 0.582 | 0.677 | 0.703 | 0.575 | 0.709 | 0.659 | 0.483 | 0.447 | 0.433 | 0.376 |
| NCI-H838 | 1.03 | 0.857 | 0.94 | 0.549 | 0.127 | 0.508 | 0.491 | 0.514 | 0.705 | 0.234 | 0.25 | 0.199 | 0.171 | 0.0921 | 0.566 | 0.549 | 0.226 | 0.307 | 0.205 | 0.494 |
| NCI-H1355 | 0.825 | 0.819 | 0.832 | 0.822 | 0.61 | 0.401 | 0.417 | 0.439 | 0.464 | 0.414 | 0.435 | 0.368 | 0.413 | 0.38 | 0.884 | 0.592 | 0.444 | 0.286 | 0.279 | 0.432 |
| NCI-H1395 | 1.17 | 1.62 | 1.2 | 0.961 | 0.776 | 1.05 | 0.999 | 0.954 | 0.904 | 0.645 | 0.589 | 0.542 | 0.553 | 0.458 | 0.819 | 0.675 | 0.571 | 0.528 | 0.821 | 1.04 |
| NCI-H1437 | 1.05 | 1.13 | 0.988 | 0.828 | 0.208 | 0.521 | 0.509 | 0.625 | 0.621 | 0.334 | 0.3 | 0.296 | 0.33 | 0.286 | 0.505 | 0.582 | 0.274 | 0.235 | 0.221 | 0.449 |
| NCI-H1651 | 1.07 | 0.978 | 0.994 | 0.6 | 0.332 | 0.826 | 0.846 | 0.855 | 0.821 | 0.523 | 0.515 | 0.51 | 0.513 | 0.509 | 0.799 | 0.977 | 0.708 | 0.676 | 0.747 | 0.874 |
| NCI-H1666 | 1.03 | 0.957 | 0.779 | 0.842 | 0.703 | 0.87 | 0.838 | 0.844 | 0.877 | 0.668 | 0.683 | 0.641 | 0.676 | 0.645 | 0.622 | 0.66 | 0.488 | 0.56 | 0.476 | 0.655 |
| NCI-H1734 | 0.904 | 0.947 | 0.888 | 0.938 | 0.416 | 0.658 | 0.71 | 0.633 | 0.683 | 0.338 | 0.361 | 0.33 | 0.32 | 0.2 | 0.727 | 0.91 | 0.635 | 0.449 | 0.38 | 0.663 |
| NCI-H1755 | 1.06 | 1.02 | 0.971 | 0.985 | 0.768 | 0.8 | 0.709 | 0.81 | 0.783 | 0.436 | 0.479 | 0.421 | 0.491 | 0.418 | 1.02 | 0.991 | 0.836 | 0.573 | 0.481 | 0.804 |
| NCI-H1792 | 0.602 | 0.501 | 0.642 | 0.569 | 0.523 |  | 0.375 | 0.521 | 0.458 | 0.613 | 0.704 | 0.666 | 0.662 | 0.585 | 0.851 | 0.94 | 0.806 | 0.564 | 0.53 | 0.407 |
| NCI-H1793 | 0.985 | 0.962 | 0.822 | 0.883 | 0.398 | 0.449 | 0.407 | 0.435 | 0.432 | 0.271 | 0.348 | 0.292 | 0.335 | 0.196 | 0.543 | 0.604 | 0.489 | 0.562 | 0.291 | 0.446 |
| NCI-H1915 | 1.05 | 1.1 | 1 | 1.06 | 0.974 | 0.318 | 0.3 | 0.307 | 0.272 | 0.571 | 0.514 | 0.523 | 0.472 | 0.422 | 0.608 | 0.33 | 0.257 | 0.189 | 0.219 | 0.308 |
| NCI-H1944 | 1.2 | 1.1 | 1.22 | 1.13 | 0.936 | 0.402 | 0.409 | 0.4 | 0.474 | 0.286 | 0.362 | 0.313 | 0.357 | 0.293 | 0.807 | 0.819 | 0.526 | 0.428 | 0.416 | 0.377 |
| NCI-H1975 | 1.09 | 0.924 | 0.976 | 0.497 | 0.15 | 0.377 | 0.338 | 0.373 | 0.337 | 0.66 | 0.547 | 0.553 | 0.42 | 0.157 | 0.538 | 0.456 | 0.364 | 0.327 | 0.29 | 0.388 |
| NCI-H1993 | 0.742 | 0.685 | 0.72 | 0.801 | 0.544 |  | 0.56 | 0.504 | 0.641 | 0.626 | 0.519 | 0.637 | 0.617 | 0.454 | 0.837 | 0.774 | 0.8 | 0.731 | 0.725 | 0.48 |
| NCI-H2009 | 1.27 | 1.12 | 1.19 | 0.872 | 0.81 | 0.288 | 0.237 | 0.213 | 0.276 | 0.349 | 0.252 | 0.218 | 0.201 | 0.157 | 0.8 | 0.599 | 0.225 | 0.268 | 0.276 | 0.335 |
| NCI-H2023 | 0.76 | 0.535 | 0.706 | 0.232 | 0.157 | 0.592 | 0.565 | 0.591 | 0.905 | 0.406 | 0.361 | 0.374 | 0.138 | 0.0623 | 0.55 | 0.519 | 0.125 | 0.231 | 0.157 | 0.585 |
